Results: ChEMBL document CHEMBL5729526, “Substituted imidazolidin-2-one derivatives as PRMT5 inhibitors” (2023)

Target: Protein arginine N-methyltransferase 5 (Homo sapiens, UniProt O14744)
Assay: TR-FRET Assay: Protein arginine methyltransferase 5 (PRMT5) is a type II arginine methyltransferase that catalyze mono- and symmetric […] on arginine residues of histone or non-histone proteins in presence of S-adenosylmethionine (AdoMet or SAM) a cofactor responsible for donating the methyl group. PRMT5 is reported to be overexpressed in several human cancers. To identify compounds that inhibit the PRMT5 and decrease its activity, a TR-FRET based assay has been established. Time-resolved fluorescence resonance energy transfer (TR-FRET) HTS assays are homogeneous proximity assays where the interaction of two dye-labeled binding partners is detected by the energy transfer between a donor and an acceptor dye, and the subsequent light emission by the acceptor dye. PRMT5 catalyzes Histone H4 peptide [1-16] which is biotin tagged to the Lysine amino acid at carboxyl end, in presence of S-adenosyl-1-methionine (SAM) to methylate the peptide. The antibody specific to mono methylated H4 peptide (H4R3) with Ig conjugate binds to the methylated peptide, indirectly binding to the Europium lanthanide. SureLight Allophycocyanin-Streptavidin binds to the biotin tag of the peptide, therefore accepting the energy transferred from the Europium lanthanide. This energy transfer between Europium to SureLight Allophycocyanin is a direct measure of the activity/inhibition of the PRMT5 enzyme. […]

Sequence of Protein arginine N-methyltransferase 5 (O14744 whole entry): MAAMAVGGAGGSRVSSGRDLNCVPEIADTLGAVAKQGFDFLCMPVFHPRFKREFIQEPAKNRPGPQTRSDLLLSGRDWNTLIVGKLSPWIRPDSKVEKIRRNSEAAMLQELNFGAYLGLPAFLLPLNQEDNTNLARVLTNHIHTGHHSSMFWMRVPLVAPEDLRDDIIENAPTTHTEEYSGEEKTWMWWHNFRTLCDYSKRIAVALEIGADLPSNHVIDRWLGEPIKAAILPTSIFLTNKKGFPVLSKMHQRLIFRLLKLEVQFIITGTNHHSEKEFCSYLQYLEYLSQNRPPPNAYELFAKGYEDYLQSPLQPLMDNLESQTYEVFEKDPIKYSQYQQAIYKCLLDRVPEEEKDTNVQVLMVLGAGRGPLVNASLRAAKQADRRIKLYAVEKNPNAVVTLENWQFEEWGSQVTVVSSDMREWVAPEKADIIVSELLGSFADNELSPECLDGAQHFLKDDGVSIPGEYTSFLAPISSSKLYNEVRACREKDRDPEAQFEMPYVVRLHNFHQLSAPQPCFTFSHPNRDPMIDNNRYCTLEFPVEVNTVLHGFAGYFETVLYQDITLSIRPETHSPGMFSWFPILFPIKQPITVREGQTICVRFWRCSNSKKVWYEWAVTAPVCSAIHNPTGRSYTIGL

IC50: 53 nM
Compound: O=C1N(Cc2cnc(-c3cccnc3)cn2)CCN1C[C@H](O)CN1CCc2ccccc2C1
